Where a SMILES comes first, the peptide text is derived from it. [ ]: non-standard residue; d: D form. Phe(4-CONH2) = NC(=O)c1ccc(C[C@H](N)C(=O)O)cc1
Experiments:
[1] = biological target: T1, cloned human κ opioid receptor (Homo sapiens, UniProt P41145); experiment: [3H]diprenorphine receptor binding, κ opioid receptor; conditions: δ over κ
T1 construct: expressed in transfected cells; host or cells: CHO cells
Experimental: (§1) The potencies of the compounds of the Examples were determined by testing the ability of a range of concentrations of each compound to inhibit the binding of the non-selective opioid antagonist, [^3H]diprenorphine, to the cloned human μ, κ, and δ opioid receptors, expressed in separate cell lines. IC50 values were obtained by nonlinear analysis of the data using GraphPad Prism version 3.00 for Windows (GraphPad Software, San Diego). Ki values were obtained by Cheng-Prusoff corrections of IC50 values.
(§2) The receptor binding method (DeHaven and DeHaven-Hudkins, 1998) was a modification of the method of Raynor et al. (1994). […] The filters were rinsed 4 times with 1 mL of cold 50 mM Tris HCl, pH 7.8 and radioactivity remaining on the filters determined by scintillation spectroscopy. Nonspecific binding was determined by the minimum values of the titration curves and was confirmed by separate assay wells containing 10 μM naloxone. Ki values were determined by Cheng-Prusoff corrections of IC50 values derived from nonlinear regression fits of 12 point titration curves using GraphPad Prism® version 3.00 for Windows (GraphPad Software, San Diego, Calif.).
(§3) To determine the equilibrium dissociation constant for the inhibitors (Ki), radioligand bound (cpm) in the presence of various concentrations of test compounds was measured. […]

[2] = biological target: T2, cloned human δ opioid receptor (Homo sapiens, UniProt P41143); experiment: [3H]diprenorphine receptor binding, δ opioid receptor
T2 construct: expressed in transfected cells; host or cells: CHO cells
T2 sequence (P41143 whole entry): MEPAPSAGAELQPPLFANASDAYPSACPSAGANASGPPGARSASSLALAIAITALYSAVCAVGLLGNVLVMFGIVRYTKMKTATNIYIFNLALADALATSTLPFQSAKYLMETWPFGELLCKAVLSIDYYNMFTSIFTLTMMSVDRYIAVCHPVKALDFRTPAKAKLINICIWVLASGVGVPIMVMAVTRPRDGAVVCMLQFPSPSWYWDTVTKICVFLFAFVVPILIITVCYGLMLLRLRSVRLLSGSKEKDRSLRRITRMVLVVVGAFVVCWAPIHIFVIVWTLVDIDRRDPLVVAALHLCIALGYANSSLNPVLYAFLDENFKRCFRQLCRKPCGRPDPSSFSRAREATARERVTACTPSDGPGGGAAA
Experimental: as §1, §2, §3

[3] = biological target: T3, cloned human μ opioid receptor (Homo sapiens, UniProt P35372); experiment: [3H]diprenorphine receptor binding, μ opioid receptor; conditions: δ over μ
T3 construct: expressed in transfected cells; host or cells: CHO cells
T3 sequence (P35372 whole entry): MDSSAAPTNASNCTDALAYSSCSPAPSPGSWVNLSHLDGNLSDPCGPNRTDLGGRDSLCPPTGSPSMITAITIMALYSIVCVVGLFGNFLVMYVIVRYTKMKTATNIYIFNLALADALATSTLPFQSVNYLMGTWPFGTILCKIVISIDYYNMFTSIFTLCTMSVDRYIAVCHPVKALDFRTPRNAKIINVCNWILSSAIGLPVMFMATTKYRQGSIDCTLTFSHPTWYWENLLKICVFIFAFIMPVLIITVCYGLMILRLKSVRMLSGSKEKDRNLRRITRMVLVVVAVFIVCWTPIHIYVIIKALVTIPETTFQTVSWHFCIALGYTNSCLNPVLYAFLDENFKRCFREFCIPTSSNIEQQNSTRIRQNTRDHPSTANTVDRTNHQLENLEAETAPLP
Experimental: as §1, §2, §3

[4] = biological target: T2, cloned human δ opioid receptor; experiment: Receptor-mediated [35S]GTPγS binding, δ opioid receptor; type: biochemical
Experimental: The potency and efficacy of compounds at each of the receptors are assessed by modifications of the methods of Selley et al., 1997 and Traynor and Nahorski, 1995 using receptor-mediated [^35S]GTPγS binding in the same membrane preparations used to measure receptor binding. Assays are carried out in 96-well FlashPlates® (Perkin Elmer Life Sciences, Inc, Boston, Mass.). Membranes prepared from CHO cells expressing the appropriate receptor (50-100 μg of protein) are added to assay mixtures containing agonist with or without antagonists, […] [^35S]GTPγS (approx. 100,000 dpm), 3.0 μM GDP, 75 mM NaCl, 15 mM MgCl2, 1.0 mM ethylene glycol-bis(β-aminoethyl ether)-N,N,N′,N′-tetracetic acid, 1.1 mM dithiothreitol, 10 μg/mL leupeptin, 10 μg/mL pepstatin A, 200 μg/mL bacitracin, and 0.5 μg/mL aprotinin in 50 mM Tris-HCl buffer, pH 7.8. After incubation at room temperature for one hour, the plates are sealed, centrifuged at 800×g in a swinging bucket rotor for 5 minutes and bound radioactivity determined with a TopCount microplate scintillation counter (Packard Instrument Co., Meriden, Conn.).
EC50 values for agonists are determined from nonlinear regression fits of 8- or 12-point titration curves to the 4-parameter equation for a sigmoidal dose-response with a slope factor of 1.0 using GraphPad Prism version 3.00 for Windows (GraphPad Software, San Diego, Calif.).

T1 sequence (P41145 whole entry): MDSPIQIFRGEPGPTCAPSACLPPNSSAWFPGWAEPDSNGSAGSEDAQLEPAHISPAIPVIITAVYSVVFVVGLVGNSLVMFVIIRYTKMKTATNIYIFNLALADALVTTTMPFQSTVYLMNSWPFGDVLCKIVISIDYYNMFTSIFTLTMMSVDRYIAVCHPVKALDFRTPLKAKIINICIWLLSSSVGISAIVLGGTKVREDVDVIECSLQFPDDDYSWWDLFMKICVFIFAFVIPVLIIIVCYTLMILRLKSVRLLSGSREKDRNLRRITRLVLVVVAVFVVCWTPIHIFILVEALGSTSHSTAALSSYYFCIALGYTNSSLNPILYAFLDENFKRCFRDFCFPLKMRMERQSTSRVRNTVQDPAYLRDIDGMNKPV

CC(C)C[C@H](NC(=O)[C@H](Cc1ccccc1)NC(=O)CNC(=O)CNC(=O)[C@@H](N)Cc1ccc(C(N)=O)cc1)C(N)=O [Example 1, H-Cpa-Gly-Gly-Phe-Leu-NH2] (H-[Phe(4-CONH2)]GGFL-NH2)
selectivity versus the κ opioid receptor [1]: greater than 10 fold | Ki [2]: 7 nM | selectivity versus the μ opioid receptor [3]: greater than 10 fold | EC50 [4]: 74 nM

Source: US20050113295A1, “Carboxamide and amino derivatives and methods of their use” (priority 2003, published 2005)
